Measured values from patent US8283361B2 (AstraZeneca AB, priority 2008, dated 2012).

Molecular target: S. aureus GyrB ATPase (Staphylococcus aureus, UniProt P0A0K8)
Assay: biochemical
Conditions: compound at 1 μM; one value per test if tested more than once; 1 µM
Procedure: S. aureus GyrB ATPase Inhibition Activity: Compounds may be tested for inhibition of S. aureus GyrB ATPase activity using an ammonium molybdate/malachite green-based phosphate detection assay (Lanzetta, P. A., L. J. Alvarez, P. S. Reinach, and O. A. Candia, 1979, 100: 95-97). Assays can be performed in multiwell plates in 30 μl reactions containing: 50 mM Hepes buffer pH 7.5, 75 mM ammonium acetate, 8.0 mM magnesium chloride, 0.5 mM ethylenediaminetetraacetic acid, 5% glycerol, 1.0 mM 1,4-Dithio-DL-threitol, 200 nM bovine serum albumin, 1.0 μg/m1 sheared salmon sperm DNA, 250 pM E. coli GyrA, 250 pM S. aureus GyrB, 250 μM ATP, and compound in dimethylsulfoxide. Reactions can be quenched with 30 μl of ammonium molybdate/malachite green detection reagent containing 1.2 mM malachite green hydrochloride, 8.5 mM ammonium molybdate tetrahydrate, and 1 M hydrochloric acid. […] An IC50 measurement of compound potency for each compound can be determined from reactions performed in the presence of 10 different compound concentrations.

Sequence of S. aureus GyrB ATPase (P0A0K8 whole entry): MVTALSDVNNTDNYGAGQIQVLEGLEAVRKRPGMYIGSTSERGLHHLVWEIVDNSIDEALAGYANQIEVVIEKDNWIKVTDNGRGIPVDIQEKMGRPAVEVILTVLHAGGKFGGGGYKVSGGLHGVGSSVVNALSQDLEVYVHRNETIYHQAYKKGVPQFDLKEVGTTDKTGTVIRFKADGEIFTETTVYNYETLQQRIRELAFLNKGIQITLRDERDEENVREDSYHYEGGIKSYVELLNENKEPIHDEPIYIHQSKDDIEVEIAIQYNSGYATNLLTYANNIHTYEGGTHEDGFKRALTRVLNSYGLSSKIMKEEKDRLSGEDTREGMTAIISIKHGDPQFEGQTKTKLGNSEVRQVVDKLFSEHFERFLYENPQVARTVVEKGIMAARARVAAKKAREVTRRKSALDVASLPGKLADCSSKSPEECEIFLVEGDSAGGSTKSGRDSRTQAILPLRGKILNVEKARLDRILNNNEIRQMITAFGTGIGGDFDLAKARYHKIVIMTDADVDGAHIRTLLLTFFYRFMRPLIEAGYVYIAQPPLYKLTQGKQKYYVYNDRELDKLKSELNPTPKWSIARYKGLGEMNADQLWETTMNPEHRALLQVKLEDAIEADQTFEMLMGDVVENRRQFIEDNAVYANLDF
Sequence of S. aureus GyrB ATPase (P0AES4 whole entry, further chain): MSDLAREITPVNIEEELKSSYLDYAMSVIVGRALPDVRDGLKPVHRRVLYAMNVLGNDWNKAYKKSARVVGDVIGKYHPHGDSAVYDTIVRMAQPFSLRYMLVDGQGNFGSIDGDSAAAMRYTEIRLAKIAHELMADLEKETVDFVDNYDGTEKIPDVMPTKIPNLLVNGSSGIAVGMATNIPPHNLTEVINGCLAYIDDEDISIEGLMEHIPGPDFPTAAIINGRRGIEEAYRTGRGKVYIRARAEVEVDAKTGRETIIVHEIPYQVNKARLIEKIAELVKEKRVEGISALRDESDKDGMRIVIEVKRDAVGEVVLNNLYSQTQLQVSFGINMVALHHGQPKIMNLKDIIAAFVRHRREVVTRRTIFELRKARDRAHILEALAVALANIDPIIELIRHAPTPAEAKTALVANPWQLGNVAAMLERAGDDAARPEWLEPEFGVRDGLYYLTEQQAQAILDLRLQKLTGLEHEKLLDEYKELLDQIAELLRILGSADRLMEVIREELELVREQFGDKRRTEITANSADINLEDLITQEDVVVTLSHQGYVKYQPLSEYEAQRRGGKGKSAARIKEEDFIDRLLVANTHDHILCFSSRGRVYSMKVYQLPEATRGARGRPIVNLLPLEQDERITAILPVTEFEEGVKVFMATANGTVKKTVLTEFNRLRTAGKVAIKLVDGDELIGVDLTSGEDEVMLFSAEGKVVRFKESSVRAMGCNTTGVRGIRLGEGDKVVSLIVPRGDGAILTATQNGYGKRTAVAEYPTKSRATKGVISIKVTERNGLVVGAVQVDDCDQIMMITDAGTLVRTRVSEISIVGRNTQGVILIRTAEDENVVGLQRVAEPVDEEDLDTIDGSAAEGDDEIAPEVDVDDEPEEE

`CCNC(=O)Nc1cc(-c2nc(C(F)(F)F)cs2)c(-c2ccc3c(c2)c(=O)c(C(=O)O)cn3CC2COCCN2)cn1` (centres unmarked) [Example 294] was tested, and the “% Inhibition of S. aureus GyrB ATPase” value was 109%.

Same assay, conditions: compound at 1 μM; one value per test if tested more than once; read-out: % Inhibition of S. aureus GyrB ATPase

First: CCNC(=O)Nc1cc(-c2nc(C(F)(F)F)cs2)c(-c2ccc3c(c2)c(=O)c(C(=O)O)cn3[C@@H]2CCCN(CC(C)(C)C)C2)cn1 [Example 286]
Second: CCNC(=O)Nc1cc(-c2nc(C(F)(F)F)cs2)c(-c2ccc3c(c2)c(=O)c(C(=O)O)cn3[C@H]2CCCNC2)cn1 [Example 245, (S)-6-(6-(3-ethylureido)-4-(4-(trifluoromethyl)thiazol-2-yl)pyridin-3-yl)-4-oxo-1-(piperidin-3-yl)-1,4-dihydroquinoline-3-carboxylic acid]
The inhibition at 1 µM of the first is lower: 102% for the first, 105% for the second.

`CCNC(=O)Nc1cc(-c2nc(-c3ccccc3)cs2)c(-c2ccc3c(=O)c(C(=O)OCC)cn(CC)c3c2)cn1` [Example 44, ethyl 1-ethyl-7-(6-(3-ethylureido)-4-(4-phenylthiazol-2-yl)pyridin-3-yl)-4-oxo-1,4-dihydroquinoline-3-carboxylate] and `CCNC(=O)Nc1cc(-c2nc(CC)cs2)c(-c2ccc3c(c2)c(=O)c(C(=O)O)cn3CC)cn1` [Example 13, 1-ethyl-6-(6-(3-ethylureido)-4-(4-ethylthiazol-2-yl)pyridin-3-yl)-4-oxo-1,4-dihydroquinoline-3-carboxylic acid] are the same in inhibition at 1 µM: 98% for the first, 98% for the second.

Going from `CCNC(=O)Nc1cc(-c2nc(C(F)(F)F)cs2)c(-c2ccc3c(=O)c(C(=O)NC)cn(CCO)c3c2)cn1` [Example 363, 7-{6-[(Ethylcarbamoyl)amino]-4-[4-(trifluoromethyl)-1,3-thiazol-2-yl]pyridin-3-yl}-1-(2-hydroxyethyl)-N-methyl-4-oxo-1,4-dihydroquinoline-3-carboxamide] to `CCNC(=O)Nc1cc(-c2nc(C(F)(F)F)cs2)c(-c2ccc3c(=O)c(C(=O)NC)cn(CCC(C)C)c3c2)cn1` [Example 335, 7-{6-[(ethylcarbamoyl)amino]-4-[4-(trifluoromethyl)-1,3-thiazol-2-yl]pyridin-3-yl}-N-methyl-1-(3-methylbutyl)-4-oxo-1,4-dihydroquinoline-3-carboxamide], the inhibition at 1 µM rises from 95% to 107%.

Going from `CC(C)NC(=O)Nc1cc(-c2nc(C(F)(F)F)cs2)c(-c2ccc3c(c2)c(=O)c(C(=O)O)cn3C2CCOCC2)cn1` [Example 199, 6-(6-(3-isopropylureido)-4-(4-(trifluoromethyl)thiazol-2-yl)pyridin-3-yl)-4-oxo-1-(tetrahydro-2H-pyran-4-yl)-1,4-dihydroquinoline-3-carboxylic acid] to `CCNC(=O)Nc1cc(-c2nc(C(F)(F)F)cs2)c(-c2ccc3c(c2)c(=O)c(C(=O)O)cn3[C@@H](CC)CO)cn1` [Example 86, (S)-6-(6-(3-ethylureido)-4-(4-(trifluoromethyl)thiazol-2-yl)pyridin-3-yl)-1-(1-hydroxybutan-2-yl)-4-oxo-1,4-dihydroquinoline-3-carboxylic acid], the inhibition at 1 µM falls from 103% to 98%.

`CCNC(=O)Nc1cc(-c2nc(C(F)(F)F)cs2)c(-c2ccc3c(=O)c(C(=O)NCCN4CCN(C)CC4)cn(CC)c3c2)cn1` [Example 334, 1-Ethyl-7-{6-[(ethylcarbamoyl)amino]-4-[4-(trifluoromethyl)-1,3-thiazol-2-yl]pyridin-3-yl}-N-[2-(4-methylpiperazin-1-yl)ethyl]-4-oxo-1,4-dihydroquinoline-3-carboxamide] and `CCCn1cc(C(=O)NCCN2CCOCC2)c(=O)c2ccc(-c3cnc(NC(=O)NCC)cc3-c3nc(C(F)(F)F)cs3)cc21` [Example 351, 7-{6-[(ethylcarbamoyl)amino]-4-[4-(trifluoromethyl)-1,3-thiazol-2-yl]pyridin-3-yl}-N-[2-(morpholin-4-yl)ethyl]-4-oxo-1-propyl-1,4-dihydroquinoline-3-carboxamide] are the same in inhibition at 1 µM: 95% for the first, 95% for the second.
